Measured values reported in US8946299B2, “Use of calixarenes associated with an antibiotic in the treatment of bacterial infections” (Universite de Lorraine, priority 2011, dated 2015).
One block for each compound: values may come before it.

How the values were obtained:
[1] = system: ESBL-producing strain of Escherichia coli (EcR3); assay: Chessboard technique: MICs alone and synergism of Cx1 combinations; format: cell-based; details: antibiotic used alone; second figure of the cell; n = 4
Excerpt: (§1) Three reference strains were used, corresponding to those studied for the MICs and MBCs (Minimum Bactericidal Concentration): Escherichia coli ATCC 25922, Staphylococcus aureus ATCC 29213, Pseudomonas aeruginosa ATCC 27853. For each of these strains 3 corresponding clinical isolates were chosen, having various antibiotic-resistance profiles, routinely used in standard fashion: • EcR1, EcR2, EcR3; • SaR1, SaR3, SaR4; • PaR2, PaR3, PaR5.
(§2) 1.3. Procedure: Chessboard Technique
(§3) The bacterial suspension is transferred to a 15 mL Falcon tube, centrifuged for 10 min at 4500 g, then the pellet is re-suspended in 1 mL of sterile distilled water. Suitable dilutions are then prepared in order to obtain a bacterial inoculum between 5·10^5 and 5·10^6 CFU/mL.
(§4) The MICs of the antibiotics were previously determined for each strain, by the method of microdilution in a liquid medium (CLSI (Clinical and Laboratory Standards Institute), 2003).
(§5) The same procedure is followed for the Cx1. […] Thus 64 ATB/Cx1 combinations are obtained.
(§6) The final volume contained in each of the wells must be 100 μL. Two controls must be present on each plate: • column 1 and 12: medium control • column 2 and 11: medium+bacteria control
(§7) Cx1: […] in the wells of […], starting with the lowest concentration.
(§8) ATB: 25 μL in the wells of rows H to A (columns 3 to 11), starting with the lowest concentration.
(§9) 50 μL in each of the wells of columns 2 to 11.
(§10) D2: Reading the Turbidity at 540 Nm.
(§11) The FIC (Fractional Inhibitory Concentration Index) value is determined by the following formula:
(§12) [formula] MICA in combination MICA alone MICB in combination MICB alone
(§13) When FIC≦0.5, there is a synergistic effect between antibiotic A and antibiotic B.
(§14) When 0.5<FIC≦1, there is an additive effect between antibiotic A and antibiotic B.
(§15) When 1<FIC≦4, there is an indifferent effect between antibiotic A and antibiotic B.
(§16) When FIC>4, there is an antagonistic effect between antibiotic A and antibiotic B.
(§17) For each strain and each antibiotic/Cx1 combination, the experiments were repeated a minimum of 3 times.

[2] = system: Pseudomonas aeruginosa strain ATCC 27853 (wild type); assay: as above; format: cell-based; details: antibiotic used alone; second figure of the cell; n = 4
Excerpt: as §1, §2, §3, §4, §5, §6, §7, §8, §9, §10, §11, §12, §13, §14, §15, §16, §17

[3] = system: Pseudomonas aeruginosa strain having a resistance to β-lactams (including the carbapenems), aminoglycosides, the trimethoprim-sulphamethoxazole combination and …; assay: as above; format: cell-based; details: antibiotic used alone; second figure of the cell; n = 4
Excerpt: as §1, §2, §3, §4, §5, §6, §7, §8, §9, §10, §11, §12, §13, §14, §15, §16, §17

[4] = system: Staphylococcus aureus strain ATCC 29213 (wild type); assay: as above; format: cell-based; details: antibiotic used alone; second figure of the cell; n = 4
Excerpt: as §1, §2, §3, §4, §5, §6, §7, §8, §9, §10, §11, §12, §13, §14, §15, §16, §17

[5] = system: mucoid strain of Pseudomonas aeruginosa having a resistance to rifampicin and the trimethoprim-sulphamethoxazole combination (PaR5); assay: as above; format: cell-based; details: antibiotic used alone; second figure of the cell; n = 4
Excerpt: as §1, §2, §3, §4, §5, §6, §7, §8, §9, §10, §11, §12, §13, §14, §15, §16, §17

[6] = system: Pseudomonas aeruginosa strain having a resistance to β-lactams, the trimethoprim-sulphamethoxazole combination and fosfomycin (PaR2); format: cell-based; details: antibiotic used alone; second figure of the cell; n = 4
Excerpt: as §1, §2, §3, §4, §5, §6, §7, §8, §9, §10, §11, §12, §13, §14, §15, §16, §17

[7] = system: EcR1: Penicillinase-Producing Escherichia coli without Associated Resistance; assay: Antibiogram, MIC by the VITEK 2 system; format: cell-based; details: Table A1, category from MIC
Description: (§18) 5. Identification and Antibiogram 5.1 EcR1: Penicillinase-Producing Escherichia coli without Associated Resistance
(§19) The bacterial and antibiogram identification is carried out by the VITEK 2 system (bioMérieux) and by the disk diffusion technique.

[8] = system: EcR1: Penicillinase-Producing Escherichia coli without Associated Resistance; assay: Antibiogram by the disk diffusion technique; format: cell-based; details: for Results (diameter): Table A1, category from diameter vs Dmin Dmax; for diameter in mm: Table A2, diameter
Description: as §18, §19

[9] = system: Escherichia coli strain ATCC 25922 (wild type); assay: Chessboard technique: MICs alone and synergism of Cx1 combinations; format: cell-based; details: antibiotic used alone; second figure of the cell; n = 4
Excerpt: as §1, §2, §3, §4, §5, §6, §7, §8, §9, §10, §11, §12, §13, §14, §15, §16, §17

[10] = system: cephalosporinase-hyperproducing strain of Escherichia coli (EcR2); assay: as above; format: cell-based; details: antibiotic used alone; second figure of the cell; n = 4
Excerpt: as §1, §2, §3, §4, §5, §6, §7, §8, §9, §10, §11, §12, §13, §14, §15, §16, §17

[11] = system: EcR2: Cephalosporinase-Hyperproducing Escherichia coli; assay: Antibiogram by the disk diffusion technique; format: cell-based; details: Table B2; strain EcR2; diameters
Description: 5.2 EcR2: Cephalosporinase-Hyperproducing Escherichia coli Having an Associated Resistance to the Aminoglycosides, Quinolones and the Trimethoprim-Sulphamethoxazole Combination
The bacterial and antibiogram identification is carried out by the VITEK 1 system (bioMérieux) and by the disk diffusion technique

[12] = system: MRSA strain having a resistance to the aminoglycosides and fluoroquinolones (SaR3); assay: Chessboard technique: MICs alone and synergism of Cx1 combinations; format: cell-based, Staphylococcus aureus; details: antibiotic used alone; second figure of the cell; n = 4
Excerpt: as §1, §2, §3, §4, §5, §6, §7, §8, §9, §10, §11, §12, §13, §14, §15, §16, §17

[13] = system: MRSA strain having a resistance to the aminoglycosides, fluoroquinolones, macrolides-lincosamides-synergistins and ofloxacin (SaR4); assay: as above; format: cell-based, Staphylococcus aureus; details: antibiotic used alone; second figure of the cell; n = 4
Excerpt: as §1, §2, §3, §4, §5, §6, §7, §8, §9, §10, §11, §12, §13, §14, §15, §16, §17

[14] = system: MRSA strain without associated resistance (SaR1); assay: as above; format: cell-based, Staphylococcus aureus; details: antibiotic used alone; second figure of the cell; n = 4
Excerpt: as §1, §2, §3, §4, §5, §6, §7, §8, §9, §10, §11, §12, §13, §14, §15, §16, §17

[15] = system: Escherichia coli, Staphylococcus aureus and Pseudomonas aeruginosa strains; assay: Chessboard technique, summary over all strains and combinations tested; format: cell-based
Excerpt: as §1, §2
The FIC (Fractional Inhibitory Concentration Index) value is determined by the following formula: […]
as §17

Structure (SMILES): NCC[C@H](O)C(=O)N[C@@H]1C[C@H](N)[C@@H](O[C@H]2O[C@H](CN)[C@@H](O)[C@H](O)[C@H]2O)[C@H](O)[C@H]1O[C@H]1O[C@H](CO)[C@@H](O)[C@H](N)[C@H]1O [Amikacin]
Initial MICs (antibiotic) [1]: 1 mg/L
MIC (antibiotic) [2]: 0.5 µg/mL
MIC (antibiotic) [3]: 1 mg/L
Initials MIC (antibiotic) [4]: 1 mg/L
MIC (antibiotic) [5]: 0.5 µg/mL
MIC (antibiotic) [6]: 1 µg/mL
Results (MIC) [7]: Susceptible
Results (diameter) [8]: Susceptible

Initial MICs (antibiotic) [9]: 4/4 mg/L
Initial MICs (antibiotic) [10]: 256 mg/L
Results (MIC) [7]: Resistant
Structure (SMILES): CC1(C)S[C@@H]2[C@H](NC(=O)[C@H](N)c3ccc(O)cc3)C(=O)N2[C@H]1C(=O)O [Amoxicillin]
Results (diameter) [8]: Resistant

Structure (SMILES): C[C@H]1[C@H](NC(=O)/C(=N\OC(C)(C)C(=O)O)c2csc(N)n2)C(=O)N1S(=O)(=O)O [Aztreonam]
Results (diameter) [8]: Susceptible
diameter in mm [8]: 28 mm

Results (MIC) [7]: Susceptible
Structure (SMILES): CC(=O)OCC1=C(C(=O)O)N2C(=O)[C@@H](NC(=O)Cc3cccs3)[C@H]2SC1 [C1G, Cefalotine]
Results (diameter) [8]: Intermediate

Structure (SMILES): CO/N=C(\C(=O)N[C@@H]1C(=O)N2C(C(=O)[O-])=C(C[N+]3(C)CCCC3)CS[C@H]12)c1csc(N)n1 [Cefepime]
Results (diameter) [8]: Susceptible
diameter in mm [8]: 27 mm

Initial MICs (antibiotic) [1]: 128 mg/L
Initial MICs (antibiotic) [10]: 4 mg/L
Results (MIC) [7]: Susceptible
Structure (SMILES): CO/N=C(\C(=O)N[C@@H]1C(=O)N2C(C(=O)O)=C(COC(C)=O)CS[C@H]12)c1csc(N)n1 [Cefotaxime]
Results (diameter) [8]: Susceptible
diameter in mm [11]: 24 mm

Results (MIC) [7]: Susceptible
Structure (SMILES): CO[C@@]1(NC(=O)Cc2cccs2)C(=O)N2C(C(=O)O)=C(COC(N)=O)CS[C@@H]21 [Cefoxitin]
Results (diameter) [8]: Susceptible
diameter in mm [11]: 11 mm

Structure (SMILES): O=C(O)c1cn(C2CC2)c2cc(N3CCNCC3)c(F)cc2c1=O [Ciprofloxacin]
Results (diameter) [8]: Susceptible

Structure (SMILES): C[C@@H]1O[C@@H]1P(=O)(O)O [Fosfomycin]
MIC (antibiotic) [2]: 16 µg/mL
MIC (antibiotic) [3]: > 64 mg/L
Initials MIC (antibiotic) [4]: 8/8 mg/L
MIC (antibiotic) [5]: 16 µg/mL
MIC (antibiotic) [12]: 16 µg/mL
MIC (antibiotic) [13]: 128 µg/mL
MIC (antibiotic) [14]: 2 µg/mL
MIC (antibiotic) [6]: 64 µg/mL
Results (diameter) [8]: Susceptible
diameter in mm [8]: 24 mm
nature of the interaction between Cx1 and the antibiotic [15]: synergism

Initials MIC (antibiotic) [4]: 2 mg/L
MIC (antibiotic) [13]: 4 µg/mL
Structure (SMILES): CC(=O)O[C@H]1C[C@@]2(C)[C@@H](C[C@@H](O)[C@H]3[C@@]4(C)CC[C@@H](O)[C@@H](C)[C@@H]4CC[C@@]32C)/C1=C(\CCC=C(C)C)C(=O)O [Fusidic acid]
nature of the interaction between Cx1 and the antibiotic [15]: synergism

Structure (SMILES): C[C@@H](O)[C@H]1C(=O)N2C(C(=O)O)=C(SCCN=CN)C[C@H]12 [Imipenem]
MIC (antibiotic) [2]: 2 µg/mL
MIC (antibiotic) [3]: 32/32 mg/L
MIC (antibiotic) [5]: 2 µg/mL
MIC (antibiotic) [13]: 2 µg/mL
MIC (antibiotic) [6]: 2 µg/mL
